According to US8012993B2, “Stable S-nitrosothiols, method of synthesis and use” (Lacer, S.A., priority 2006, dated 2011):

Experiments:
[1] = Stability study: storage in closed borosilicate glass vial, HPLC analysis; format: physicochemical
systemic blood pressure = test: Effect of nitrosothiols on systemic blood pressure; format: in vivo, male Wistar rats; conditions: for Mean arterial pressure, Basal: before initiation of the treatment
Method: Fasted male Wistar rats (300-320 g; Janvier, Le Genest St. Isle, France) were anesthetized with sodium pentobarbitone (60 mg/kg i.p.). The effect of treatments on systemic blood pressure was tested. Products dissolved in saline solution and were infused intravenously for 30 minutes at 0.5 ml/h. […] Basal blood pressure was measured before initiation of the treatment and was recorded throughout the treatment period using a pressure transducer connected to the carotid artery. The change in blood pressure was expressed as a % of change vs. basal values.

arterial thrombosis = test: Rat arterial thrombosis model (ferric chloride, carotid artery); format: in vivo, male Wistar rats; conditions: i.v. infusion for 30 minutes
Method: The activity of the products was assessed in experimental animals in accordance with the European Community Standards on the Care and Use of Laboratory Animals and approved by the Animal Care and Use Committee of local authorities. Two experimental models to test antithrombotic activity in rats were used: Arterio-Venous Shunt and Ferric chloride arterial thrombosis model. Additionally, the effect of the products on the systemic blood pressure was investigated. Fasted male Wistar rats (300-320 g; Janvier, Le Genest St. Isle, France) were anesthetized with sodium pentobarbital (60 mg/kg i.p.) and thermoregulated by use of blankets (Biosis homeothermic blanket control unit; Biosis, Spain). A segment (approximately 1-cm long) of the left carotid artery was exposed and fitted at the distal end with an appropriately sized Doppler flow probe. Thrombosis was induced by applying a 70% ferric chloride solution embedded patch onto the artery. Blood flow velocity was measured using a Doppler flowmeter (Transonic Systems, San Diego, Calif.) and data recorded using a system for acquisition of data (Acqk). Blood flow was recorded for 60 min post-lesion. When the flow declined to zero, the time in minutes to thrombus formation was noted. The protocol followed was originally described by Feuerstein G Z, et al Artherioscler. Thromb. Vasc. Biol. 1999, 19: 2554-2562 and modified by Kurz K D, et al Thromb. Res. 1990, 60:269-280. The number of animals presenting no occlusion 30 min post-lesion were also noted. Products were dissolved in saline and were given as an i.v. infusion for 30 minutes. ED50 for each product was calculated and results are shown in Table 1 • Anti-thrombotic effect of compounds compared with reference compound in rat arterial thrombosis model after i.v. administration for 30 minutes.

[2] = tested on: thrombus in arterio-venous shunt; test: Rat arterio-venous shunt silk thread model; format: in vivo, male Wistar rats; conditions: rat AV shunt, perfusion 60 minutes
Method: The activity of the products was assessed in experimental animals in accordance with the European Community Standards on the Care and Use of Laboratory Animals and approved by the Animal Care and Use Committee of local authorities. Two experimental models to test antithrombotic activity in rats were used: Arterio-Venous Shunt and Ferric chloride arterial thrombosis model. Additionally, the effect of the products on the systemic blood pressure was investigated. Fasted male Wistar rats (300-320 g; Janvier, Le Genest St. Isle, France) were anesthetized with sodium pentobarbitone (60 mg/kg i.p.). An arterio-venous (AV) shunt was prepared according to the technique of Umetsu and Sanai (1978). Two 12 cm-long polyethylene tubes (0.85- and 1.27-mm i.d. and o.d., respectively) linked to a central part (6 cm-long; 1.14-mm i.d.) containing a 5-cm cotton thread and filled with […]) saline solution were placed between the right carotid artery and the left jugular vein. All products were given i.v through the jugular vein for 60 minutes. Shunt was placed 45 minutes after the initiation of the perfusion with the testing substances and removed at the end of the perfusion i.e. after 15 min of blood circulation. Cotton thread supporting the thrombus was extracted.

intraocular pressure = test: Alfa-chymotrypsin-induced glaucoma, intraocular pressure; format: in vivo; conditions: glaucoma rabbits; for intraocular pressure, 0 hr / intraocular pressure, 1 hr / intraocular pressure, 2 hr: 3 drops instillation
Method: The method used was that described by Gabriele Campana, Claudio Bucolo, Giovanna Murari and Santi Spampinato in Pharmacol. Exp Therap Vol. 303, Issue 3, 1086-1094, December 2002
Animals were injected with intra muscular injection of dexamethasone at the dose rate of 10 mg/Kg body weight, to avoid immediate inflammation. Animals were anesthetized with ketamine (50 mg/kg IV) in combination with Dizepam.
Xylocalne (4%) was used for local anesthesia topically. A cannula attached to reservoir was inserted into the anterior chamber with the help of a 30 gauge needle to provide a hydrostatic pressure of 25 mmHg during injection of alpha-chymotrypsin. Then a second appropriately shaped 30 gauge needle was introduced near the pupil. Freshly prepared 150 units of alpha chymotrypsin prepared in 0.1 ml of sterile saline was irrigated through the cannula into the posterior chamber. Care was taken to prevent the contact of alpha chymotrypsin with corneal stroma. Both cannulas were carefully removed without significant loss of aqueous humor. Immediately after surgery the eye treated with Sofracort (Corticosteroid) to reduce the chances of fungal or microbial infection.
All the animals were kept under observation for 5 days and after these five days the intraocular pressure (IOP) was measured daily with a Schiontz type indentation tonometer using 5.5 gm weights and by compilation of readings the maximum period required to achieve a stable increase in IOP was determined. […] IOP was measured after 15 days for 3 consecutive days, every morning (at same time) to assure stable IOP.
All the animals were closely observed for the development of glaucoma. Thirty animals showing the symptoms of glaucoma and with the intra ocular pressure more than 30 mmHg were selected for the present investigation.
Compound (R,S)-4-(Acetylamino-ethoxycarbonyl-methyl)-1-methyl-4-S-nitroso-mercapto-piperidinium chloride (example 1g) was administered to a group of rabbits at a concentration of 0.05% by weight [0.05 g in 100 mL of saline serum] by 3 drops instillation. For comparative data, the compound Timolol (Timoftol®) widely used for the treatment of glaucoma, was also administered to another group of rabbits at a concentration of 0.5% by weight.
The intraocular pressure measurements are included in the table 2 in mm Hg taken at 0, 1 and 2 h after 3 drops instillation.

[3] = at 4° C., closed glass vial, no longer stable when it loses more than 5% of initial purity (HPLC)
[4] = at 25° C., closed glass vial, no longer stable when it loses more than 5% of initial purity (HPLC)
[5] = anesthetized rat, i.v. infusion 30 min, dose 100 times the antithrombotic ED50
[6] = change vs. basal after 30 min i.v. infusion, dose 100 times the antithrombotic ED50

Structure (SMILES)	time the compound was stable [1, 3]	time the compound was stable [1, 4]	Mean arterial pressure, Basal (systemic blood pressure; anesthetized rat) [mm Hg]	Mean arterial pressure, After 30 min infusion (systemic blood pressure; [5]) [mm Hg]	Mean arterial pressure, Change (systemic blood pressure; [6]) [%]	ED50 (anti-thrombotic effect) (arterial thrombosis)	also measured
CCOC(=O)C(NC(C)=O)C1(SN=O)CCN(C)CC1.Cl (racemic) [Example 1g, (R,S)-4-(Acetylamino-ethoxycarbonyl-methyl)-1-methyl-4-S-nitrosomercapto-piperidinium chloride]	more than 10 months	2.5 months	115.7 ± 8.3	113.6 ± 9.2	−1.8	9.1 μg/kg, i.v.	Antithrombotic protection ([2]; dose 2.0 μg/kg i.v.): 54%; intraocular pressure, 0 hr (intraocular pressure; 0.05% by weight in saline): 34.33 ± 0.68 mm Hg; intraocular pressure, 1 hr (intraocular pressure; 0.05% by weight in saline): 24.72 ± 0.47 mm Hg; intraocular pressure, 2 hr (intraocular pressure; 0.05% by weight in saline): 23.86 ± 0.32 mm Hg; effect on intraocular pressure (in words) (intraocular pressure; 0.05%, 10-fold lower concentration than Timolol): significantly reduces the intraocular pressure
CCOC(=O)[C@@H](NS(=O)(=O)c1ccccc1)C1(SN=O)CCN(C)CC1.Cl (racemic) [Example 7 (hydrochloride salt), (R,S)-4-(Benzenesulfonylamino-ethoxycarbonyl-methyl)-1-methyl-4-S-nitrosomercapto-piperidinium chloride]	> 6 months	at least 4 months	117.9 ± 10.2	–	–	56.4 μg/kg, i.v.	Mean arterial pressure, Change (systemic blood pressure; rat, in vivo): +0.8%; Mean arterial pressure, After 30 min infusion (systemic blood pressure; rat, in vivo, iv): 118.8 ± 11.1 mm Hg; Antithrombotic protection ([2]; dose 10.4 μg/kg i.v.): 60%
N[C@@H](CCC(=O)N[C@@H](CSN=O)C(=O)NCC(=O)O)C(=O)O [GSNO, S-nitrosoglutathione, reference compound]	–	–	112.2 ± 6.2	98.8 ± 4.1	−12.0	18.1 μg/kg, i.v.	time the compound was stable ([1]; at 25° C., prior art S-nitrothiol compounds, loss of more than 5% of initial purity): 1 days; Antithrombotic protection ([2]; dose 4.0 μg/kg i.v.): 58%
CC(C)(C)NC[C@H](O)COc1nsnc1N1CCOCC1 [Timolol, reference compound]	–	–	–	–	–	–	intraocular pressure, 0 hr (intraocular pressure; 0.5% by weight): 34.45 ± 0.58 mm Hg; intraocular pressure, 1 hr (intraocular pressure; 0.5% by weight): 24.77 ± 0.26 mm Hg; intraocular pressure, 2 hr (intraocular pressure; 0.5% by weight): 24.54 ± 0.26 mm Hg
CC(=O)NC(C(=O)O)C1(SN=O)CCN(C)CC1 (stereo not drawn) [example 2 of EP 1157987, N-acetyl-2-amino-2[4-(4-S-nitrosomercapto-1-methylpiperidin)]acetic acid, reference compound]	–	–	–	95.1 ± 2.4	–	4.1 μg/kg, i.v.	Antithrombotic protection ([2]; dose 1.7 μg/kg i.v.): 61%
